The source of these data is ChEMBL document CHEMBL1201862, “PubChem BioAssay data set” (2004).

In general, AC50 refers to the concentration giving half of the maximal activity seen. By EC50 is commonly meant the midpoint of the concentration-response curve.

Assay [1] concerns the target T1, CAAX prenyl protease 2 (Saccharomyces cerevisiae S288c, UniProt Q03530).
T1 sequence (Q03530 whole entry): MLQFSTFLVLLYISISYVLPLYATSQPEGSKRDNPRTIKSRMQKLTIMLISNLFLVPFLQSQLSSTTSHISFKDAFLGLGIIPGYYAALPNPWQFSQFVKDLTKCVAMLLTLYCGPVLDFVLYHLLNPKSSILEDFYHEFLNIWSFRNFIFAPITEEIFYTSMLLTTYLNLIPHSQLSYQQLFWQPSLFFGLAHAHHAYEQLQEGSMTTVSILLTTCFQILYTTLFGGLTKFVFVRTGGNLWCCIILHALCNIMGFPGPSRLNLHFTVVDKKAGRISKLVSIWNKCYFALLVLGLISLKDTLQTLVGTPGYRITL
It is filed as biochemical.

Assay [2] addresses CAAX prenyl protease 1 (Saccharomyces cerevisiae S288c, UniProt P47154). Briefly: Ste24 protease inhibitors, dose response, biochemical, S. cerevisiae, plate reader, cherry-pick (AID 488815).
For assay [3], the target named is T2, RNA-binding protein pos-1 (Caenorhabditis elegans, UniProt G5EF15).
T2 sequence (G5EF15 whole entry): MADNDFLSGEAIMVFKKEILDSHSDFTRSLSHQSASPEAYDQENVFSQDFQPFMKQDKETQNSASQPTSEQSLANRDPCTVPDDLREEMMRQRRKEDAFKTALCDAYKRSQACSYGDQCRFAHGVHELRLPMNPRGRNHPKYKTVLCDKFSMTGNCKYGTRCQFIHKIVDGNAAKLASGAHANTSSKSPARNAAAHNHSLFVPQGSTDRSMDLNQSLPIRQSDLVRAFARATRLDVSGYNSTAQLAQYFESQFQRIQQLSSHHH
Briefly: inhibitors of POS-1/mex-3 RNA binding, dose response, biochemical, fluorescence polarization (AID 1964).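 Also: purified POS-1 fused to maltose binding protein made in E. coli; potency of compounds blocking POS-1 binding to fluorescent RNA.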 For orientation: Fluorescence polarisation rises when a labelled molecule tumbles more slowly, as on binding a larger partner.

Assay [4] concerns the target T3, Alkaline phosphatase, tissue-nonspecific isozyme (Homo sapiens, UniProt P05186).
T3 sequence (P05186 whole entry): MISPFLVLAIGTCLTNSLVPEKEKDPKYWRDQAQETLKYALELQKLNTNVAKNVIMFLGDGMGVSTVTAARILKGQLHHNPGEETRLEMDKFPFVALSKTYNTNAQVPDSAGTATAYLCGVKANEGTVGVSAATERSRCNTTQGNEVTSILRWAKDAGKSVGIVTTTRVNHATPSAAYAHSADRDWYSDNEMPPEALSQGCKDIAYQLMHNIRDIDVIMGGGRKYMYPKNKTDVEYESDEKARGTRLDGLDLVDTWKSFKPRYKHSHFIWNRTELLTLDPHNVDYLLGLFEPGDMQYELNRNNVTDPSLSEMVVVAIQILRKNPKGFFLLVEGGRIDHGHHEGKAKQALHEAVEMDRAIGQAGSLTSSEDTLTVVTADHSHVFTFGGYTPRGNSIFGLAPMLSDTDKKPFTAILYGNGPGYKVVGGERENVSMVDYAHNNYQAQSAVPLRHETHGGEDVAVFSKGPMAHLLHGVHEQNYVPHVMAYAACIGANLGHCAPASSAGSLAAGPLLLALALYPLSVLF
The assay is described as follows: TNAP enzyme inhibition by screening hits, dose response, selectivity assay for mouse IAP inhibitor project, biochemical, human TNAP, uHTS hits (AID 488906). In kind it is functional.

Assay [5] has as its target Intestinal-type alkaline phosphatase (Mus musculus, UniProt P24822). The assay is described as follows: PubChem AID 488785. In kind it is functional.
Assay [6] addresses T4, Zinc finger protein mex-5 (Caenorhabditis elegans, UniProt Q9XUB2).
T4 sequence (Q9XUB2 whole entry): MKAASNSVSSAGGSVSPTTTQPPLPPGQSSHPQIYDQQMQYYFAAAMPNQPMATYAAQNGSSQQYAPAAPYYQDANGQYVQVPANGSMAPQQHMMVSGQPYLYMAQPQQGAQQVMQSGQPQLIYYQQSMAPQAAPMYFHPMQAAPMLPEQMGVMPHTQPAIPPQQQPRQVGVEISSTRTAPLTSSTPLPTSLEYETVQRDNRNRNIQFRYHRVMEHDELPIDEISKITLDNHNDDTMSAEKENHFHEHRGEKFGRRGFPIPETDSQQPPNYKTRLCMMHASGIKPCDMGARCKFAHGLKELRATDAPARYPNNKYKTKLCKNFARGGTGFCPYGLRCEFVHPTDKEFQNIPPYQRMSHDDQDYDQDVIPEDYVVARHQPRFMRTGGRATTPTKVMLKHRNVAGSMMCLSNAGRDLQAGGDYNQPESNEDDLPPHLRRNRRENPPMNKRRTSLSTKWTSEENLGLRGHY
The assay is described as follows: MEX-5/TCR-2 RNA interaction inhibitors, dose response, biochemical, C. elegans, fluorescence polarization (AID 1960).

Assay [7] concerns the target Albumin (Bos taurus, UniProt P02769). The assay is described as follows: Counterscreen for inhibitors of T-cell receptor (TCR)-CD3 interaction: Fluorescence-based biochemical high throughput dose response assay to identify inhibitors of T-cell receptor (TCR)-CD3 interaction using a TAMRA-labeled BSA probe. In kind it is functional. (The purpose of a counterscreen is to sort out artefacts and off-target activity.)

Assay [8] has as its target Intestinal-type alkaline phosphatase (Homo sapiens, UniProt P09923). Briefly: inhibition of human intestinal alkaline phosphatase – biochemical, dose response (AID 488876). It is filed as functional.
The target of assay [9] is FAD-linked sulfhydryl oxidase ALR (Homo sapiens, UniProt P55789). The assay is described as follows: inhibitors of human ALR sulfhydryl oxidase, dose response, biochemical, H2O2 detection, luminescence, cherry-pick (AID 493248).
In assay [10] the target is T5, Dual specificity protein phosphatase 3 (Homo sapiens, UniProt P51452). Briefly: VHR1 phosphatase inhibitors, biochemical (AID 1878).
Assay [11] addresses T6, Small ubiquitin-related modifier 1 (Homo sapiens, UniProt P63165). The assay is described as follows: inhibitors of SUMO1 peptide binding, dose response, biochemical, fluorescence polarization, uHTS hits (AID 624382). It is filed as functional. As to conditions: read-out: IC50_Mean.
The target of assay [12] is 26S proteasome non-ATPase regulatory subunit 14 (Homo sapiens, UniProt O00487). The assay is described as follows: inhibition of proteasome subunit RPN11 – biochemical, fluorescence polarization, uHTS hits, confirmation (AID 602368). In kind it is functional.
The target in assay [13] is T7, SUMO-activating enzyme (Homo sapiens, UniProt Q9UBT2). The assay is described as follows: SUMOylation inhibitor hit validation, confirmation, SUMOylation inhibitor project, biochemical, AlphaScreen (AID 2018). It is filed as functional. In general terms: Bead proximity is the source of the signal in Alpha formats.
In assay [14] the target is T8, Dual specificity protein phosphatase 6 (Rattus norvegicus, UniProt Q64346).
T8 sequence (Q64346 whole entry): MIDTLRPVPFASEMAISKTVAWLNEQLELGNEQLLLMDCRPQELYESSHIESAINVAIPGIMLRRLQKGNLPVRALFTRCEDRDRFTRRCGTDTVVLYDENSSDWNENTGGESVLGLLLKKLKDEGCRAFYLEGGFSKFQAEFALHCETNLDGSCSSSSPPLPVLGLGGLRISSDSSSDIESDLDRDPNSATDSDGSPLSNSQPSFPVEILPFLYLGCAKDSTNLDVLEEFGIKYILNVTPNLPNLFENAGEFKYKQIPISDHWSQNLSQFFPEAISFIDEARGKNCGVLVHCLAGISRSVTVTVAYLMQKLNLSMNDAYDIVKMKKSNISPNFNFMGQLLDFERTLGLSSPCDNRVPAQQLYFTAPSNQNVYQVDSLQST
Briefly: MKP-3 phosphatase inhibitors, primary screen, biochemical, rat enzyme, in vitro (AID 425).

Assay [15] has as its target T5, Dual specificity protein phosphatase 3. Briefly: VHR1 phosphatase inhibitors, primary screen, biochemical, absorbance, uHTS (AID 1654).
Assay [16] addresses 72 kDa type IV collagenase (Homo sapiens, UniProt P08253). The assay is described as follows: Dose Response validation of uHTS RPN11 inhibitor hits using a MMP-2 Fluorescence assay. In kind it is functional.
Assay [17] concerns the target T6, Small ubiquitin-related modifier 1. The assay is described as follows: inhibitors of SUMO1 partner interactions, dose response, biochemical, FRET (AID 624383). It is filed as functional. As to conditions: read-out: IC50_Mean.
Assay [18] concerns the target Prothrombin (Bos taurus, UniProt P00735). Briefly: thrombin inhibition, dose response, biochemical, fluorescence polarization, uHTS hits (AID 602369). It is filed as functional.
Assay [19] deals with T7, SUMO-activating enzyme. The assay is described as follows: inhibitors of in vitro SUMOylation cascade, primary screen, biochemical, HTRF, uHTS (AID 2006). It is filed as protein-complex assay.

Active and inactive are the calls of the source.

T5 sequence (P51452 whole entry): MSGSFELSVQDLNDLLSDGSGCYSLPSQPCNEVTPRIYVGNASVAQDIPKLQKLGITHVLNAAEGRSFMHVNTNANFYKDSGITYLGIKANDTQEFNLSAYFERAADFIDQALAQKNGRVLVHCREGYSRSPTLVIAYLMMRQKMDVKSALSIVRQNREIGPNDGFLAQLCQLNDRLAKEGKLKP
T7 sequence (Q9UBE0 whole entry): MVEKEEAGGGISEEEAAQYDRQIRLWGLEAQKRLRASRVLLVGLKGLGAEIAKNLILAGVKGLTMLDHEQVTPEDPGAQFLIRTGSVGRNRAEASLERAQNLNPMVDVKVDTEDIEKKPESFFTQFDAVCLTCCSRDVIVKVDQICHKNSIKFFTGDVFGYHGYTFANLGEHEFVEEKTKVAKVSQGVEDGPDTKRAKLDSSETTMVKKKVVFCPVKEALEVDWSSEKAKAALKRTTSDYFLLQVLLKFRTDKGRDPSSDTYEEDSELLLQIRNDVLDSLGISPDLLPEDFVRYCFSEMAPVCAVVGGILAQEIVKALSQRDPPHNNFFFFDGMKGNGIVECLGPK
T7 sequence (Q9UBT2 whole entry): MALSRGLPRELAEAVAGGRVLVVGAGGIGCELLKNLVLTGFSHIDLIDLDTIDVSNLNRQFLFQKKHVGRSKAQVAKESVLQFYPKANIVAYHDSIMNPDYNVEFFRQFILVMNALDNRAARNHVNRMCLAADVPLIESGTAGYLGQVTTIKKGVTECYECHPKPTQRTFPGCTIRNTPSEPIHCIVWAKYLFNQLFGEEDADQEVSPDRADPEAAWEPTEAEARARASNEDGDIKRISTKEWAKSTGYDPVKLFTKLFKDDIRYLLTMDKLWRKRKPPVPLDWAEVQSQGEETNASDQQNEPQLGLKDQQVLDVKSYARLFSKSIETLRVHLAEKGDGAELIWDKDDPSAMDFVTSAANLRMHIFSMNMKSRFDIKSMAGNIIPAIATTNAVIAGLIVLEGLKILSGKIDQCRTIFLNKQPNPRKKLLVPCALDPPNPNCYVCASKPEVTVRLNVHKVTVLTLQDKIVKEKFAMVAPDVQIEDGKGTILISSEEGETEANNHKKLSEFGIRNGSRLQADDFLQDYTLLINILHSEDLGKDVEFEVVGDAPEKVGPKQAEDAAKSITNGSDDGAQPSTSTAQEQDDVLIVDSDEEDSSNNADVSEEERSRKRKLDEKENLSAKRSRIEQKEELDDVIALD
T6 sequence (P63165 whole entry): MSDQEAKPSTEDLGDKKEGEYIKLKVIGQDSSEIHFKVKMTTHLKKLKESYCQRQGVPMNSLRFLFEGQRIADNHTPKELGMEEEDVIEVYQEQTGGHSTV
72 kDa type IV collagenase, sequence (P08253 whole entry): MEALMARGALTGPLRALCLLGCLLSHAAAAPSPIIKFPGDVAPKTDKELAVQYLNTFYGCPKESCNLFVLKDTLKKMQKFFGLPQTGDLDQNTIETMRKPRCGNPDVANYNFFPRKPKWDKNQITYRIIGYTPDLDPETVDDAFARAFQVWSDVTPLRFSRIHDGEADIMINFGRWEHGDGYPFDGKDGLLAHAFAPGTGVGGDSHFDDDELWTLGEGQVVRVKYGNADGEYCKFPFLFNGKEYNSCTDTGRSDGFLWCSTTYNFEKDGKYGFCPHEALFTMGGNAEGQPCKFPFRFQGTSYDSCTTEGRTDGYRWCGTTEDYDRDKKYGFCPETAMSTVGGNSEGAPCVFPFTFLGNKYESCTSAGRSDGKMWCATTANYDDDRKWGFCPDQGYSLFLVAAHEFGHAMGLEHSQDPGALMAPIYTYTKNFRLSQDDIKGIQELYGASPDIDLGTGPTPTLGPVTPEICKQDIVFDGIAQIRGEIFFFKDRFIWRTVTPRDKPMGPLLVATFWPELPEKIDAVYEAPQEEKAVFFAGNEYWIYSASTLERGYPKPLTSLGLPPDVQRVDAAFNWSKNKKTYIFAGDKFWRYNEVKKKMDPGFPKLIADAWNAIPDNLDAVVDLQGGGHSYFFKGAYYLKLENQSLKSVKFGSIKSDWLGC
Albumin, sequence (P02769 whole entry): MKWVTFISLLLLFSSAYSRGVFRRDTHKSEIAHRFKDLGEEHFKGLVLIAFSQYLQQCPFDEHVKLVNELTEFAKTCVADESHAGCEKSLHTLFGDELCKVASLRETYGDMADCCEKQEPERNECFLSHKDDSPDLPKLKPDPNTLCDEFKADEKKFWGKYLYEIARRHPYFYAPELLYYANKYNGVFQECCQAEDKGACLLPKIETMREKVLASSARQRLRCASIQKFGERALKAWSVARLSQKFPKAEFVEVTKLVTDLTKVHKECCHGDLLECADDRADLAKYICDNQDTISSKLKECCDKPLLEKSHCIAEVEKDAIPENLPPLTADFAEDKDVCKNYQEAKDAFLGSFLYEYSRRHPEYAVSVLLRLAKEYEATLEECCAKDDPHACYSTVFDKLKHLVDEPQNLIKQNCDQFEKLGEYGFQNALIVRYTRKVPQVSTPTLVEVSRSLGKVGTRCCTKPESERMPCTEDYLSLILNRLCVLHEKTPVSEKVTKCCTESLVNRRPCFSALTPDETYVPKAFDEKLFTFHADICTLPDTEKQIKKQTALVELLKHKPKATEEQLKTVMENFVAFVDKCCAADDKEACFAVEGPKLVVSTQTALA
CAAX prenyl protease 1, sequence (P47154 whole entry): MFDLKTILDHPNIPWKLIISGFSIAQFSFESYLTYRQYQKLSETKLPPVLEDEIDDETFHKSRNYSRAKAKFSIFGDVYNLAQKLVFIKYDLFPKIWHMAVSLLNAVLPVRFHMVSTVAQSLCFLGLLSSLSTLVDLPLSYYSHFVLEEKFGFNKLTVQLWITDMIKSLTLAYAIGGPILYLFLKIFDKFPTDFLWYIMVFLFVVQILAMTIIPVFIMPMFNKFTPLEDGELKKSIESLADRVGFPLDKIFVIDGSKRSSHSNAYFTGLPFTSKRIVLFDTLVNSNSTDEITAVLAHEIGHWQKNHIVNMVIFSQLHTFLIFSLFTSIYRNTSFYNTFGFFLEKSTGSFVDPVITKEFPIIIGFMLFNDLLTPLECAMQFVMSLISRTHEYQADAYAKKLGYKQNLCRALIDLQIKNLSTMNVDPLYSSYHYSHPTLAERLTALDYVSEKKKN
Intestinal-type alkaline phosphatase (Mus musculus, UniProt P24822), sequence (P24822 whole entry): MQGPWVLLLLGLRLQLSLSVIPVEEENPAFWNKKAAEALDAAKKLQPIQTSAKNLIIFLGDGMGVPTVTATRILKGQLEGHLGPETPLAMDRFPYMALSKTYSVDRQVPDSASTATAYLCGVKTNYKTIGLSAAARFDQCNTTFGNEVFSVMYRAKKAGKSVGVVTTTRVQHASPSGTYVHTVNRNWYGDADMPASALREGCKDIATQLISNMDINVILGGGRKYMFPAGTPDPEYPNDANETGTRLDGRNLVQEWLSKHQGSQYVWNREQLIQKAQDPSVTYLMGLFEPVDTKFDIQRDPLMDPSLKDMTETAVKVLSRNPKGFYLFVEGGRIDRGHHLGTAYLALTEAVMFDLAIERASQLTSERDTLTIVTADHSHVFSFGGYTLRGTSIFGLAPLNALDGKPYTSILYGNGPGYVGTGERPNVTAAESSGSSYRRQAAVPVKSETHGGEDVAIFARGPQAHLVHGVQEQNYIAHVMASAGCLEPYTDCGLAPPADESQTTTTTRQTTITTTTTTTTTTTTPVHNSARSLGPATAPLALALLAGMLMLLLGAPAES
Intestinal-type alkaline phosphatase (Homo sapiens, UniProt P09923), sequence (P09923 whole entry): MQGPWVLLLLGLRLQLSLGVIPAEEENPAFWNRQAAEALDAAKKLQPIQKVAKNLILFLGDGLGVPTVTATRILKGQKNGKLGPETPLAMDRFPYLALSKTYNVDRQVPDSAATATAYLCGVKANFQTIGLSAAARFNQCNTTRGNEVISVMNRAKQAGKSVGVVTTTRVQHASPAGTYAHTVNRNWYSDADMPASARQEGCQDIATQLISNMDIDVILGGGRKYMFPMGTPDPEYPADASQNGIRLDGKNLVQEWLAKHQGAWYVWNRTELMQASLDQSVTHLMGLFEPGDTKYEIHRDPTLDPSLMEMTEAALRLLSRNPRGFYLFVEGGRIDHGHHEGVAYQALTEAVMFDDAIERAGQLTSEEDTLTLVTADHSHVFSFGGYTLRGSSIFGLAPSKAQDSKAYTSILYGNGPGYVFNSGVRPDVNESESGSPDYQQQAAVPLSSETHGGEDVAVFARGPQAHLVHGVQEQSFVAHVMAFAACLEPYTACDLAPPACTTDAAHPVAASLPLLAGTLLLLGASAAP
26S proteasome non-ATPase regulatory subunit 14, sequence (O00487 whole entry): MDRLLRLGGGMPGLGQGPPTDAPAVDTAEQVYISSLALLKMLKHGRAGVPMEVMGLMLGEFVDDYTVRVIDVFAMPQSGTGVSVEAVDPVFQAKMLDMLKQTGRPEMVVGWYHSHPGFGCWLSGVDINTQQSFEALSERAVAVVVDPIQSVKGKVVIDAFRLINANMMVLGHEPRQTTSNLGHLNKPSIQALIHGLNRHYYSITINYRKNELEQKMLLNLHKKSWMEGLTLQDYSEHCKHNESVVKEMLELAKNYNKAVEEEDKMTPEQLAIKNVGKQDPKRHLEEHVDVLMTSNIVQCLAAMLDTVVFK
FAD-linked sulfhydryl oxidase ALR, sequence (P55789 whole entry): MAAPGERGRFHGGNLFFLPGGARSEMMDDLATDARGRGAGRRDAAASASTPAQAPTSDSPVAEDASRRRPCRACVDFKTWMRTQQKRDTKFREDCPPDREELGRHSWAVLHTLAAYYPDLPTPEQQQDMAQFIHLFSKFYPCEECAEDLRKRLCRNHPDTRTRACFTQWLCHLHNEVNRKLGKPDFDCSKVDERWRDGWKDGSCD

Regarding `COc1ccc(-c2cc(C(F)(F)F)nc(SCC(=O)N(C)Cc3cn(C)nc3C)n2)cc1OC`, the AC50 in assay [1] is 23.3 µM (active); in assay [2], 12.7 µM (active).

On to `O=C(N/N=C/c1cccnc1)c1cc(O)c(O)c(O)c1`, for which the EC50 in assay [3] is 24.8 µM (active); in assay [6], 4.24 µM (active). Also, the IC50 in assay [4] is > 100 µM (inactive); in assay [5], 5.77 µM (active); in assay [7], > 94 µM (inactive); in assay [8], > 100 µM (inactive). Besides, the AC50 in assay [9] is < 0.005 µM (active).

`O=C(CSc1nnc(SCc2ccc(Cl)cc2)s1)N/N=C/c1c[nH]c2ccccc12`: the IC50 is 3.82 µM (active) in [10]; > 66.6 µM (inactive) in [11]; 9.99 µM (active) in assay [12]; 1.54 µM (active) in [13]; 76.5 µM (active) in assay [14]; 16.2 µM (active) in [15]. The IC50 in assay [16] was > 100 µM (inactive); in assay [17], 2.02 µM (active); in assay [18], 82.5 µM (active); in [19] it was 48.3 µM (active).
